The values below come from US6693125B2 (CombinatoRx Incorporated, priority 2001, dated 2004).

The subject of data set [1] is A549 lung adenocarcinoma cells. Kind of data set: A549 bromodeoxyuridine (BrdU) cytoblot antiproliferative assay of compound dilution matrix. It is filed as cell-based. On the procedure:
An 8× stock solution (128 μM) of each individual compound was made in Dulbecco's Modified Eagle Medium (DMEM) (Gibco 11995-040) containing 10% fetal bovine serum (FBS), […] L-glutamine, and 1% antibiotic/antimycotic solution. From this a 2-fold dilution series was made in DMEM. […] This compound mixture plate provided 4× concentrations of each compound that are transferred to assay plates.
The compound dilution matrix was assayed using the A549 bromodeoxyuri dine (BrdU) cytoblot method. […] Fifteen microliters of the 4× compound mixture matrix was added to each well of the plate containing the cells. The compound mixture matrix was transferred using a 16-channel pipettor (Finnpipette). In addition, control wells with paclitaxel (final concentration 4.6 μM), podophyllotoxin (9.6 μM), and quinacrine (8.5 μM) were added to each plate. Each experiment was conducted in triplicate plates.
After incubation for 48 hours at 37° C., BrdU was added to each well at a concentration of 10 μM. After 16 hours, the media was aspirated and the cells were fixed by the addition of 70% ethanol and phosphate-buffered saline (PBS) at room temperature for 1 hour. The fixative was aspirated and 2N HCl with Tween 20 (polyoxyethylene sorbitan monolaurate) was added to each well and the plates were incubated for 20 minutes at room temperature. The HCl was neutralized with a solution of 2N NaOH and the cells were washed twice with Hank's Balanced Salt Solution (HBSS) and once with PBS containing 0.5% bovine serum albumin (BSA) and 0.1% Tween 20. The wash solution was removed and mouse anti-BrdU primary antibody (PharMingen #555627) was diluted 1:1000 in PBS containing BSA, Tween 20, and secondary antibody at a dilution of 1:2000 (Amersham #NA931). The secondary antibody recognizes the mouse antibody and is conjugated to the enzyme horseradish peroxidase (HRP). After one hour of incubation, the antibody solution was removed and the cells washed once with PBS. After the PBS wash, the HRP substrate (which contains luminol, hydrogen peroxide, and an enhancer such as para-iodophenol) was added to each well. The plates were read using an LJL Analyst. All aspirations as well as the washes with PBS and HBSS were performed using a TECAN™ Power Washer 384. The amount of light output from each well indicates the amount of DNA synthesis that occurred in that well. Decreased light indicates antiproliferative action of the compounds.
Antiproliferative ratios were also calculated for paclitaxel, podophyllotoxin, and quinacrine and used for comparison.
The assays were performed as described in Example 2, above.

For data set [2] the following is noted: cited from earlier work.
In data set [3] the test system is nocodozole-resistant NocR and Podrii6 cell lines. The note with it: Gupta, Mol. Pharmacol. 30:142-148, 1986; cited from earlier work.
The conditions of data set [4]: mice, single intraperitoneal injection 10 mg/kg; cited from earlier work.
Setting [5] is: Homo sapiens, A549, read-out: inhibition of growth.

SMILES strings stand for the structures.

With `CCC[S+]([O-])c1ccc2[nH]c(NC(=O)OC)nc2c1` (stereo not shown) [Albendazole Sulfoxide, albendazole sulfoxide], the antiproliferative ratio in data set [1] (albendazole sulfoxide 0.5 μM + pentamidine isethionate 0 μM) is reported as 1.2; in data set [1] (albendazole sulfoxide 1 μM + pentamidine isethionate 0 μM) it was 1.1; in data set [1] (albendazole sulfoxide 2 μM + pentamidine isethionate 0 μM) it was 1.2; in data set [1] (albendazole sulfoxide 4 μM + pentamidine isethionate 0 μM), 1.4; in data set [1] (albendazole sulfoxide 8 μM + pentamidine isethionate 0 μM) it was 1.4.

In general, inhibition of growth refers to how much of the control response was suppressed. Take `CCCSc1ccc2[nH]c(NC(=O)OC)nc2c1` [Albendazole, albendazole]: the antiproliferative ratio worked out at 1.3 in data set [1] (albendazole 0.03 μM + pentamidine isethionate 0 μM); 0.9 in data set [1] (albendazole 0.06 μM + pentamidine isethionate 0 μM); 1.2 in data set [1] (albendazole 0.13 μM + pentamidine isethionate 0 μM); 1.3 in data set [1] (albendazole 0.25 μM + pentamidine isethionate 0 μM); 1.2 in data set [1] (albendazole 0.5 μM + pentamidine isethionate 0 μM); 1.4 in data set [1] (albendazole 1 μM + pentamidine isethionate 0 μM). Besides, the antiproliferative ratio is 2.5 in data set [1] (albendazole 2 μM + pentamidine isethionate 0 μM); 2.4 in data set [1] (albendazole 4 μM + pentamidine isethionate 0 μM); “increased no further” in data set [1] (albendazole 4 μM + pentamidine isethionate 0 μM, listed as albendazole); 3.1 in data set [1] (albendazole 8 μM + pentamidine isethionate 0 μM). This molecule registered an inhibition of growth in data set [1] (albendazole alone, two micromolar) of 60%.

For the molecule `COC(=O)Nc1nc2ccc(C(=O)c3ccccc3)cc2[nH]1` [Mebendazole, mebendazole], the antiproliferative ratio was determined as 1.0 in data set [1] (mebendazole 0.015 μM + pentamidine isethionate 0 μM); 1.4 in data set [1] (mebendazole 0.03 μM + pentamidine isethionate 0 μM); 1.0 in data set [1] (mebendazole 0.06 μM + pentamidine isethionate 0 μM); 1.5 in data set [1] (mebendazole 0.13 μM + pentamidine isethionate 0 μM); 1.5 in data set [1] (mebendazole 0.25 μM + pentamidine isethionate 0 μM); 2.8 in data set [1] (mebendazole 0.5 μM + pentamidine isethionate 0 μM). Further, the figures for the antiproliferative ratio in data set [1] (mebendazole 1 μM + pentamidine isethionate 0 μM), in data set [1] (mebendazole 2 μM + pentamidine isethionate 0 μM) and in data set [1] (mebendazole 4 μM + pentamidine isethionate 0 μM) were 3.4, 5.0 and 4.4, respectively.

Turning to `CCCOc1ccc2nc(NC(=O)OC)[nH]c2c1` [Oxibendazole, oxibendazole], the antiproliferative ratio is on record as 1.0 in data set [1] (oxibendazole 0.015 μM + pentamidine isethionate 0 μM); 1.1 in data set [1] (oxibendazole 0.03 μM + pentamidine isethionate 0 μM); 1.0 in data set [1] (oxibendazole 0.06 μM + pentamidine isethionate 0 μM); 1.1 in data set [1] (oxibendazole 0.13 μM + pentamidine isethionate 0 μM); 1.0 in data set [1] (oxibendazole 0.25 μM + pentamidine isethionate 0 μM); 1.6 in data set [1] (oxibendazole 0.5 μM + pentamidine isethionate 0 μM). Besides, the antiproliferative ratio worked out at 2.9 in data set [1] (oxibendazole 1 μM + pentamidine isethionate 0 μM), 3.2 in data set [1] (oxibendazole 2 μM + pentamidine isethionate 0 μM) and 3.6 in data set [1] (oxibendazole 4 μM + pentamidine isethionate 0 μM).

A word on the inhibition: it is the share of the control response that was lost under treatment. For `N=C(N)c1ccc(OCCCCCOc2ccc(C(=N)N)cc2)cc1` [Pentamidine Isethionate, 4,4′-diamidino-diphenoxypentane di(β-hydroxyethanesulfonate)], in data set [1] (setting [5]), the inhibition at 2 µM is 47% and the inhibition at 4 µM was found to be 55%. In addition, in data set [2], the “solubility in ether, acetone, and chloroform” value was “insoluble”; the “solubility in water and glycerin” value is “soluble”.

For the molecule `c1ccc2[nH]c(-c3cscn3)nc2c1` [Thiabendazole, thiabendazole], the “cross-resistance of nocodozole-resistant cell lines” value in data set [3] is listed as “lack of cross-resistance”. For the same molecule, the antiproliferative ratio in data set [1] (thiabendazole 0.25 μM + pentamidine isethionate 0 μM), in data set [1] (thiabendazole 0.5 μM + pentamidine isethionate 0 μM), in data set [1] (thiabendazole 1 μM + pentamidine isethionate 0 μM), in data set [1] (thiabendazole 2 μM + pentamidine isethionate 0 μM) and in data set [1] (thiabendazole 4 μM + pentamidine isethionate 0 μM) was 1.2 in each case.

Take `CC(=O)O[C@H]1C(=O)[C@@]2(C)[C@H]([C@H](OC(=O)c3ccccc3)[C@]3(O)C[C@H](OC(=O)[C@H](O)[C@@H](NC(=O)c4ccccc4)c4ccccc4)C(C)=C1C3(C)C)[C@]1(OC(C)=O)CO[C@@H]1C[C@@H]2O` [paclitaxel]: the antiproliferative ratio in data set [1] (control wells, paclitaxel final concentration 4.6 μM) stood at 4.0.

`N=C(N)c1ccc(OCCCCCOc2ccc(C(=N)N)cc2)cc1` [pentamidine]: in data set [4], the “tissue distribution (concentration ranking)” value is given as “The concentration in the kidneys was the highest, followed by that in the liver”.
